Results on 2 molecules are retold here after patent publication US4567192A, “Acylaminophenol derivatives” (Sandoz Ltd., priority 1983, dated 1986).

One may read the ED50 as the midpoint of the dose-response relation.

The subject of series [1] is GPT (Glutamate-Pyruvate-Transaminase). The series is described as follows: Hepatoxicity: GPT (Glutamate-Pyruvate-Transaminase) level in mouse serum. It counts as in vivo. The method, then: (§1) Thus on administration of 1'000 mg/kg p.o. of COMPOUND A in accordance with the invention to mice, no increase in GOT and GPT levels over levels in untreated controls (40 to 80 units/liter) is observed and no deaths are recorded. In contrast on administration of compound B (paracetamol) at a dosage of 560 mg/kg p.o., GOT levels are elevated to 3'800 units/liter and GPT levels are elevated to 3'000 units and on administration of compound B at a dosage of 1'000 mg/kg p.o., death of 2 out of 5 test animals is recorded.

Series [2] concerns inflamed rat hind-paw. The series is described as follows: Test II: Randall-Selitto Test on the inflamed rat hind-paw. It counts as in vivo. The note with it: po. The text has this: (II) The Randall-Selitto Test on the inflamed rat hind-paw (Arch. Int. Pharmacodyn. 61, 409-419, 1957).
(§2) As previously indicated, required daily dosages will depend inter al. on the particular compound of the invention employed. Results obtained for the compounds (L)-(4-acetamido-phenyl)-2-oxo-thiazolidine-4-carboxylate (compound A) in accordance with the present invention and the known analgesic paracetamol (compound B) in tests I and II above are shown in the following table.

Series [3] is described as follows: Deaths after oral administration to mice. It is filed as in vivo, mouse. The note with it: 1'000 mg/kg p.o.
Series [4] can be described thus: Test I: arthritis pain test (method of A. W. Pircio et al.). It is filed as in vivo. The note with it: po.
Excerpt: (I) The arthritis pain test (based on the method of A. W. Pircio et al., Eur. J. Pharmacol. 31, 207-215, 1975); and
as §2

For series [5], the system named is GOT (Glutamate-Oxalacetate-Transaminase). The series is described as follows: Hepatoxicity: GOT (Glutamate-Oxalacetate-Transaminase) level in mouse serum. It counts as in vivo. The method, then: as §1
The conditions of series [6]: high dosages, cited from earlier work.
The mark [7] stands for this setting: mice, 1'000 mg/kg p.o., untreated controls 40 to 80 units/liter.

In the case of `CC(=O)Nc1ccc(OC(=O)[C@@H]2CSC(=O)N2)cc1` [COMPOUND A, (L)-(4-acetamido-phenyl)-2-oxo-thiazolidine-4-carboxylate], the “increase in GPT levels over levels in untreated controls” value in series [1] (setting [7]) is listed as “no increase”. In addition, the ED50 is 310 mg/kg in series [2], approximately 162 mg/kg in series [4] (1 hr.), 162 mg/kg in series [4] (3 hrs.) and 264 mg/kg in series [4] (5 hrs.). For the same molecule, the deaths result in series [3] is on record as “no deaths”. The “increase in GOT levels over levels in untreated controls” value in series [5] (setting [7]) is “no increase”.

On to `CC(=O)Nc1ccc(O)cc1` [COMPOUND B, N-(4-hydroxyphenyl)acetamide], for which the GPT levels in series [1] (mouse, in vivo, po, 560 mg/kg) is recorded as 3'000 units. In series [6] (following liver damage), the death result is recorded as “may lead to death”. Besides, the “damage of the liver” value in series [6] is “extensive damage of the liver”. The ED50 in series [2] was 203 mg/kg; in series [4] (1 hr.), 75 mg/kg; in series [4] (3 hrs.) it was 142 mg/kg; in series [4] (5 hrs.), 261 mg/kg. Further, the “death of test animals” value in series [3] is listed as 2 out of 5. Besides, in series [5] (mouse, in vivo, po, 560 mg/kg), the GOT levels is recorded as 3'800 units/liter.
